Experimental data from EP1976513B1 (priority 2006, dated 2007).
Where two headings read alike, the source gives them in different places.

Tests used:
mice [1] = assay: Mouse tail suspension test; format: in vivo; settings: PO, 30-60 minutes before the test, 5 minutes recording
mice [2] = assay: Mouse locomotor activity; format: in vivo; settings: PO
Description: (§1) In order to ensure effects of the compounds on immobility time were not related to a general stimulant effect on baseline motor activity, locomotor activity was assessed using photocell monitored cages (Med-Associates Inc.). Each test chamber was equipped with infrared photocell beams to measure movement of the animals. Horizontal and vertical activity were measured
(§2) Rats or mice were pretreated with vehicle or test compounds and placed back in home cage, following which they will be individually placed in locomotor cages and activity was monitored in 5 minute intervals for up to 60 min.
(§3) Data were analyzed by one way analysis of variance (ANOVA) followed by post-hoc comparisons where appropriate. An effect was considered significant if p < 0.05. Data are represented as the mean and standard error to the mean (s.e.m).

[3] = biological target: T1, DA Transporter (DAT) Sites in Mouse Brain (Mus musculus, UniProt Q61327); assay: Ex vivo [3H] WIN 35428 binding after oral dosing; design: species or system C57BL/6 mice; settings: mice sacrificed 60 minutes after treatment, striatum
T1 construct: Striatum was used to determine occupancy of DA transporter sites; from tissue; host or cells: C57BL/6 mouse striatum homogenate
T1 sequence (Q61327 whole entry): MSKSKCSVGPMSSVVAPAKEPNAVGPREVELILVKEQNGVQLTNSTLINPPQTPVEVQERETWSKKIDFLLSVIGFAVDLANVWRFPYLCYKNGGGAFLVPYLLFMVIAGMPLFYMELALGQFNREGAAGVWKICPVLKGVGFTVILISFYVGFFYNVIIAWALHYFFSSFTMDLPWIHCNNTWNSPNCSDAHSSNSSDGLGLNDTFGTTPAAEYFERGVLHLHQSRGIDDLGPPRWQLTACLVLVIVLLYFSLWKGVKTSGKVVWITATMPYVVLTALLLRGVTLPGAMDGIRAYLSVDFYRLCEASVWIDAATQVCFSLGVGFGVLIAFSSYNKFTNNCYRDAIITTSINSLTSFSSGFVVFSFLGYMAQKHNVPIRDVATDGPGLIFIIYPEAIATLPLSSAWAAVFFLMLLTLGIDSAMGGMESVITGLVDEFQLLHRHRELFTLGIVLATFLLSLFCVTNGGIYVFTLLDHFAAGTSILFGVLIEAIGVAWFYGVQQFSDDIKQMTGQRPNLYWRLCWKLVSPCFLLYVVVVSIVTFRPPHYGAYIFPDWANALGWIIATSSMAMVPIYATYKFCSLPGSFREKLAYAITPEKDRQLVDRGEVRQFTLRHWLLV

Rats [4] = assay: Rat forced swim test; format: in vivo; settings: PO, 24 hours and 30-60 minutes before the 5 minute test
Rats [5] = assay: Rat locomotor activity; format: in vivo; settings: PO
Description: as §1, §2, §3

[6] = biological target: Norepinephrine Transporter (NET) Sites in Mouse Brain (Mus musculus, UniProt O55192); settings: PO, mice sacrificed 60 minutes after treatment, cortex
Chain of Norepinephrine Transporter (NET) Sites in Mouse Brain (O55192 whole entry): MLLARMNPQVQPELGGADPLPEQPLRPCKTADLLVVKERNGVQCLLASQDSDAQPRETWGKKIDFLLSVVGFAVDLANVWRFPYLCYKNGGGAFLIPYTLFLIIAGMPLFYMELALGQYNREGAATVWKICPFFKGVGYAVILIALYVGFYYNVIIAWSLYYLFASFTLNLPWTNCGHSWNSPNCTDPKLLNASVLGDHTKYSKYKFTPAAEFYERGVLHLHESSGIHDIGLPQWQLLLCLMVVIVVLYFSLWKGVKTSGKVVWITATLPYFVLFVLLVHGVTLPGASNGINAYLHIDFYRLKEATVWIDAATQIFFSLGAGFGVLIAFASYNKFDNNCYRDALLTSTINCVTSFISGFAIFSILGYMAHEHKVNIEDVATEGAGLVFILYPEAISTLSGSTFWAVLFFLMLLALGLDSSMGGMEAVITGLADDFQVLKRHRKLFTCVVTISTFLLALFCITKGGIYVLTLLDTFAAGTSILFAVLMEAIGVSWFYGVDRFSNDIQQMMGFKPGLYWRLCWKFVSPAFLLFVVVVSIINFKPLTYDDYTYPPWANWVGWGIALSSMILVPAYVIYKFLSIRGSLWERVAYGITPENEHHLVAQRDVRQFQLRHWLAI

SMILES | Mouse Tail Suspension Mean Immobility Time ± S.E.M. (mice [1]; 3 mg/kg) | Mouse Tail Suspension Mean Immobility Time ± S.E.M. (mice [1]; 10 mg/kg) | Mouse Tail Suspension Mean Immobility Time ± S.E.M. (mice [1]; 30 mg/kg) | Mouse Locomotor Activity Total Distance Traveled ± S.E.M. (mice [2]; 3 mg/kg) | Mouse Locomotor Activity Total Distance Traveled ± S.E.M. (mice [2]; 10 mg/kg) | Mouse Locomotor Activity Total Distance Traveled ± S.E.M. (mice [2]; 30 mg/kg) | Rat Forced Swim (Means ± S.E.M.) Climbing (Rats [4]; 3 mg/kg) | Rat Forced Swim (Means ± S.E.M.) Immobility (Rats [4]; 3 mg/kg) | Rat Forced Swim (Means ± S.E.M.) Swimming (Rats [4]; 3 mg/kg) | Rat Forced Swim (Means ± S.E.M.) Climbing (Rats [4]; 10 mg/kg) | Rat Forced Swim (Means ± S.E.M.) Immobility (Rats [4]; 10 mg/kg) | Rat Forced Swim (Means ± S.E.M.) Swimming (Rats [4]; 10 mg/kg) | Rat Forced Swim (Means ± S.E.M.) Climbing (Rats [4]; 30 mg/kg) | Rat Forced Swim (Means ± S.E.M.) Immobility (Rats [4]; 30 mg/kg) | Rat Forced Swim (Means ± S.E.M.) Swimming (Rats [4]; 30 mg/kg) | Rat Locomotor Activity Total Distance Traveled ± S.E.M. (Rats [5]; 3 mg/kg) | Rat Locomotor Activity Total Distance Traveled ± S.E.M. (Rats [5]; 10 mg/kg) | Rat Locomotor Activity Total Distance Traveled ± S.E.M. (Rats [5]; 30 mg/kg) | also measured
CCC(N)C1(c2ccc(Cl)c(Cl)c2)CCCCC1 (single isomer, unassigned) [17 E1, 1-(1-(3,4-dichlorophenyl)cyclohexyl)propan-1-amine] | 184.7 ± 9.0 | 182.6 ± 4.1 | 150.9 ± 7.8 | 649.3 ± 78.4 | 478.3 ± 88.5 | 428.3 ± 120.6 | – | – | – | – | – | – | – | – | – | – | – | – | –
CNC(C)C1(c2ccc(Cl)c(Cl)c2)CCCCC1 (single isomer, unassigned) [44 E1, 1-(1-(3,4-dichlorophenyl)cyclohexyl)-N-methylethanamine] | 188.9 ± 7.3 | 174.5 ± 8.1 | 120.4 ± 9.0 | 576.5 ± 66.9 | 721.1 ± 36.5 | 402.3 ± 71.0 | – | – | – | – | – | – | – | – | – | – | – | – | –
CNC(C)C1(c2ccc(Cl)c(Cl)c2)CCCCC1.Cl (single isomer, unassigned) [48 E1, 1-(1-(3,4-dichlorophenyl)cyclohexyl)-N-methylethanamine hydrochloride] | 189.8 ± 7.2 | 174.1 ± 5.8 | 134.5 ± 9.6 | 622.5 ± 101.6 | 620.0 ± 79.4 | 468.6 ± 114.2 | 7.1 ± 0.6 | 49.6 ± 1.5 | 3.7 ± 1.0 | 17.9 ± 2.5 | 35.6 ± 3.5 | 6.5 ± 1.6 | 20.6 ± 2.9 | 26.9 ± 4.4 | 9.7 ± 1.7 | 1869.9 ± 188.4 | 1825.3 ± 109.3 | 1840.6 ± 56.6 | Mean Specific Binding (dpm) ± S.E.M., DAT ([3]; 1 mg/kg): 20656 ± 1531 dpm; Mean Specific Binding (dpm) ± S.E.M., DAT ([3]; 3 mg/kg): 18039 ± 1265 dpm; Mean Specific Binding (dpm) ± S.E.M., DAT ([3]; 10 mg/kg): 9792 ± 977 dpm; Mean Specific Binding (dpm) ± S.E.M., DAT ([3]; 30 mg/kg): 3173 ± 541 dpm; Mean Specific Binding (dpm) ± S.E.M., NET ([6]; 1 mg/kg): 2111 ± 119 dpm; Mean Specific Binding (dpm) ± S.E.M., NET ([6]; 3 mg/kg): 1911 ± 144 dpm; Mean Specific Binding (dpm) ± S.E.M., NET ([6]; 10 mg/kg): 954 ± 115 dpm; Mean Specific Binding (dpm) ± S.E.M., NET ([6]; 30 mg/kg): 346 ± 55 dpm
CN(C)CC1(c2ccc(Cl)c(Cl)c2)CCCCC1O (single isomer, unassigned) [153 E2, trans-2-(3,4-dichlorophenyl)-2-((dimethylamino)methyl)cyclohexanol] | – | – | – | 625.5 ± 88.8 | 519.5 ± 88.4 | 573.7 ± 63.6 | 8.8 ± 1.5 | 49.9 ± 1.7 | 1.9 ± 0.8 | 11.7 ± 1.8 | 44.0 ± 2.1 | 4.3 ± 1.1 | 22.2 ± 5.2 | 31.3 ± 6.7 | 4.6 ± 1.3 | 1577.8 ± 80.1 | 1994.2 ± 263.9 | 2033.7 ± 215.4 | –
CN(C)CC1(c2ccc3ccccc3c2)CCCCC1O (single isomer, unassigned) [164 E1, trans-2-((dimethylamino)methyl)-2-(naphthalen-2-yl)cyclohexanol] | 183.8 ± 6.5 | 162.1 ± 4.6 | 155.3 ± 7.8 | 377.8 ± 67.6 | 210.3 ± 40.4 | 494.0 ± 84.9 | – | – | – | – | – | – | – | – | – | – | – | – | –
CN(C)CC1(c2ccc3ccccc3c2)CCCCC1O (single isomer, unassigned) [164 E2, trans-2-((dimethylamino)methyl)-2-(naphthalen-2-yl)cyclohexanol] | 181.8 ± 6.3 | 179.1 ± 4.5 | 141.8 ± 6.0 | 518.2 ± 106.1 | 464.5 ± 86.2 | 669.9 ± 75.6 | – | – | – | – | – | – | – | – | – | – | – | – | –
CNCC1(c2ccc3ccccc3c2)CCCCC1 [Compound 93, N-methyl-1-(1-(naphthalen-2-yl)cyclohexyl)methanamine] | 203.5 ± 8.0 | 185.4 ± 7.9 | 162.0 ± 8.1 | 644.0 ± 55.7 | 606.9 ± 72.4 | 737.6 ± 89.5 | 9.0 ± 1.3 | 44.5 ± 2.5 | 6.5 ± 1.6 | 12.8 ± 2.2 | 41.4 ± 2.8 | 6.9 ± 1.3 | 22.2 ± 3.5 | 25.8 ± 5.4 | 12.0 ± 2.1 | 1802.6 ± 150.6 | 1641.0 ± 144.5 | 2095.6 ± 147.2 | –
